Source: patent publication US9944589B2, “Cycloproplyamine derivatives useful as inhibitors of histone demethylases KDM1A” (Istituto Europeo de Oncologia S.r.L., priority 2012, dated 2018)
Structures can show the parent of a compound that is named as a salt.

Assays:
[1] = test system: Acute promyelocytic leukemia NB4 cells; experiment: Cell growth (CellTiter-Fluor cell viability assay); type: cell-based; conditions: Homo sapiens, NB-4, 48 h, range classes, read-out: IC50 [μM], cell growth inhibitory assay
Excerpt: CellTiter-Flor® (Promega) is as a nonlytic, single-reagent-addition fluorescence assay that measures the relative number of living cells in a culture population after experimental manipulation. The CellTiter-Fluor™ Cell Viability Assay measures the conserved and constitutive protease activity within live cells and therefore acts as a marker for cell viability.
Acute promyelocytic leukemia NB4 cells, (obtained from the Deutsche Sammlung von Mikroorganismen and Zellkulturen) in exponential growth, were incubated for 48 h with different concentrations of the inhibitors. After 48 h a volume of CellTiter-Fluor® Reagent equal to one fifth of volume of cell culture medium was added. The content was mixed and incubates for at least 90 min at 37° C. degree to obtain a stable signal. The fluorescence was recorded using an excitation wavelength of 360 nm and an emission at 535 nm. The IC50 was calculated using GraphPad Software.

[2] = molecular target: T1, human recombinant KDM1A (LSD1)/CoRest (Homo sapiens, UniProt O60341); experiment: Assay of enzyme inhibition of KDM1A (LSD1), Amplex UltraRed/peroxidase coupled; type: biochemical; conditions: 15 min preincubation, 4.5 μM mono-methylated H3-K4 peptide, range classes, read-out: IC50 [μM], KDM1A inhibition assay
T1 construct: made in house; host or cells: E. coli
Experimental: The experiments were performed using a mono-methylated H3-K4 peptide containing 21 amino acids (custom synthesis done by Thermo Scientific) as substrate and in a 50 mM TRIS, pH 8, 0.05 mg/ml BSA buffer.
The demethylase activity was estimated under aerobic conditions and at RT by measuring the release of H2O2 produced during the catalytic process by the Amplex® UltraRed detection system coupled with peroxidase assay. Briefly, a fixed amount of KDM1A/CoRest complex was incubated at RT for 15 minutes in the absence and/or the presence of various concentrations of inhibitor (e.g. from 0 to 100 μM, depending on the inhibitor strength) and of Amplex® UltraRed detection system coupled with peroxidase assay. The inhibitors were tested twice in duplicates at each concentration. […] The conversion of the Amplex® Ultra Red reagent to resorufin was monitored in continuous by fluorescence (excitation at 540 nm, emission at 590 nm) using a microplate reader (Infinite 200, Tecan). Arbitrary units were used to measure the level of H2O2 produced in the absence and/or in the presence of inhibition. The maximum demethylase activity of KDM1A/CoRest was obtained in the absence of inhibitors and corrected for background fluorescence in the absence of KDM1A/CoRest. The IC50 was calculated using GraphPad Software.

Q: With `N[C@]1(Cc2ccccc2)C[C@H]1c1ccccc1` (relative stereo) [Example A-8, trans-1-benzyl-2-phenyl-cyclopropanamine hydrochloride] as the compound, how does the IC50 [1] read?
A: 50 to 100 µM

Q: With `N[C@]1(CCc2ccccc2)C[C@H]1c1ccccc1` (relative stereo) [Example A-11, trans-1-phenethyl-2-phenyl-cyclopropanamine hydrochloride] as the compound, how does the IC50 [1] read?
A: 10 to 50 µM

Q: What does the source list for `CC[C@@]1(N)C[C@H]1c1ccc(Br)cc1` (relative stereo) [Example A-12, trans-2-(4-bromophenyl)-1-ethyl-cyclopropanamine hydrochloride]?
A: IC50 [1]: 10 to 50 µM; IC50 [2]: 0.1 to 1 µM

Q: With `N[C@]1(Cc2ccccc2)C[C@H]1c1ccc(Br)cc1` (relative stereo) [Example A-13, trans-1-benzyl-2-(4-bromophenyl)cyclopropanamine hydrochloride] as the compound, how does the IC50 [1] read?
A: 10 to 50 µM

Q: What about the IC50 [2] of the same compound?
A: 0.1 to 1 µM

Q: `CC[C@@]1(N)C[C@H]1c1ccc2ncccc2c1` (relative stereo) [Example A-14, trans-1-ethyl-2-(6-quinolyl)cyclopropanamine dihydrochloride] was tested. Which IC50 [1] did it give?
A: 10 to 50 µM

Q: With `N[C@]1(Cc2ccc3ccccc3c2)C[C@H]1c1ccccc1` (relative stereo) [Example A-15, trans-1-(2-naphthylmethyl)-2-phenyl-cyclopropanamine hydrochloride] as the compound, how does the IC50 [1] read?
A: ≤ 10 µM

Q: With `CC[C@@]1(N)C[C@H]1c1ccc(OC(F)(F)F)cc1` (relative stereo) [Example A-24, 1-ethyl-(trans)-2-[4-(trifluoromethoxy)phenyl] cyclopropanamine hydrochloride] as the compound, how does the IC50 [1] read?
A: 50 to 100 µM

Q: What about the IC50 [2] of the same compound?
A: 1 to 5 µM

Q: What does the source list for `N[C@]1(Cc2ccc3ccccc3c2)C[C@H]1c1ccc(Br)cc1` (relative stereo) [Example A-29, trans-2-(4-bromophenyl)-1-(2-naphthylmethyl)cyclopropanamine hydrochloride]?
A: IC50 [1]: 10 to 50 µM; IC50 [2]: 0.1 to 1 µM

Q: Which IC50 [1] does the source give for `CC[C@@]1(N)C[C@H]1c1ccc(NC(=O)c2ccc3ccccc3c2)cc1` (relative stereo) [Example A-30, trans-N-[4-[2-amino-2-ethyl-cyclopropyl]phenyl]naphthalene-2-carboxamide hydrochloride] here?
A: 10 to 50 µM

Q: How did the IC50 [1] turn out when `CC[C@]1(N)C[C@@H]1c1ccccc1NC(=O)c1cccc(NC(=O)OCc2ccccc2)c1` (relative stereo) [Example A-32, benzyl N-[3-[[2-[(trans)-2-amino-2-ethyl-cyclopropyl]phenyl]carbamoyl]phenyl]carbamate hydrochloride] was run?
A: 10 to 50 µM

Q: `CC[C@@]1(N)C[C@H]1c1cccc(NC(=O)c2cccc(NC(=O)OCc3ccccc3)c2)c1` (relative stereo) [Example A-33, benzyl N-[3-[[3-[(trans)-2-amino-2-ethyl-cyclopropyl]phenyl]carbamoyl]phenyl]carbamate hydrochloride] was tested. Which IC50 [1] did it give?
A: 10 to 50 µM

Q: And the IC50 [2]?
A: 0.1 to 1 µM

Q: What does the source list for `CC[C@@]1(N)C[C@H]1c1ccc(NC(=O)c2cccc(Cl)c2)cc1` (relative stereo) [Example A-34, N-[4-[(trans-2-amino-2-ethyl-cyclopropyl]phenyl]-3-chloro-benzamide hydrochloride]?
A: IC50 [1]: 10 to 50 µM; IC50 [2]: < 0.1 µM

Q: How did the IC50 [1] turn out when `CC[C@@]1(N)C[C@H]1c1ccc(NC(=O)c2cccc(NC(=O)OCc3ccccc3)c2)cc1` (relative stereo) [Example A-37, benzyl N-[3-[[4-[(trans)-2-amino-2-ethyl-cyclopropyl]phenyl]carbamoyl]phenyl]carbamate hydrochloride] was run?
A: 10 to 50 µM

Q: And the IC50 [2]?
A: < 0.1 µM

Q: For `CC[C@@]1(N)C[C@H]1c1ccc(NC(=O)c2ccc(NC(=O)OCc3ccccc3)cc2)cc1` (relative stereo) [Example A-38, benzyl N-[4-[[4-[(trans)-2-amino-2-ethyl-cyclopropyl]phenyl]carbamoyl]phenyl]carbamate hydrochloride], which IC50 [1] is on record?
A: ≤ 10 µM

Q: With `CC[C@@]1(N)C[C@H]1c1ccc(NC(=O)CCc2ccccc2)cc1` (relative stereo) [Example A-40, N-[4-[(trans)-2-amino-2-ethyl-cyclopropyl]phenyl]-3-phenyl-propanamide hydrochloride] as the compound, how does the IC50 [1] read?
A: ≤ 10 µM

Q: And the IC50 [2]?
A: < 0.1 µM

Q: What does the source list for `CC[C@@]1(N)C[C@H]1c1ccc(OCc2ccccc2)cc1` (relative stereo) [Example A-41, 2-(4-benzyloxyphenyl)- trans-1-ethyl-cyclopropanamine hydrochloride]?
A: IC50 [1]: 10 to 50 µM; IC50 [2]: 0.1 to 1 µM

Q: What does the source list for `N[C@]1(Cc2ccccc2)C[C@H]1c1ccc(OCc2ccccc2)cc1` (relative stereo) [Example A-43, trans-1-benzyl-2-(4-benzyloxyphenyl) cyclopropanamine hydrochloride]?
A: IC50 [1]: 10 to 50 µM; IC50 [2]: 0.1 to 1 µM

Q: For `N[C@]1(Cc2ccc3ccccc3c2)C[C@H]1c1ccc(NC(=O)c2cccc(NC(=O)OCc3ccccc3)c2)cc1` (relative stereo) [Example A-45, benzyl N-[3-[[4-[(trans)-2-amino-2-(2-naphthylmethyl)cyclopropyl]phenyl]carbamoyl]phenyl] carbamate hydrochloride], which IC50 [1] is on record?
A: ≤ 10 µM

Q: With `N[C@]1(Cc2ccc3ccccc3c2)C[C@H]1c1ccc(NC(=O)Cc2ccccc2)cc1` (relative stereo) [Example A-46, N-[4-[(trans-2-amino-2-(2-naphthylmethyl)cyclopropyl]phenyl]-2-phenyl-acetamide hydrochloride] as the compound, how does the IC50 [1] read?
A: ≤ 10 µM

Q: And the IC50 [2]?
A: < 0.1 µM

Q: With `CC[C@@]1(N)C[C@H]1c1ccc(NC(=O)Cc2cccc3ccccc23)cc1` (relative stereo) [Example A-68, N-[4-trans-[2-amino-2-ethyl-cyclopropyl]phenyl]-2-(1-naphthyl) acetamide hydrochloride] as the compound, how does the IC50 [1] read?
A: 10 to 50 µM

Q: What about the IC50 [2] of the same compound?
A: < 0.1 µM

Q: What does the source list for `N[C@]1(Cc2ccc3ccccc3c2)C[C@H]1c1ccc(NC(=O)c2ccc(NC(=O)OCc3ccccc3)cc2)cc1` (relative stereo) [Example A-70, benzyl N-[4-[[4-[trans-2-amino-2-(2-naphthylmethyl)cyclopropyl]phenyl]carbamoyl]phenyl]carbamate 2,2,2-trifluoroacetic acid]?
A: IC50 [1]: ≤ 10 µM; IC50 [2]: 0.1 to 1 µM

Q: With `CC[C@@]1(N)C[C@H]1c1ccc(NC(=O)c2cccc3ccccc23)cc1` (relative stereo) [Example A-71, N-[4-(trans-2-amino-2-ethyl-cyclopropyl)phenyl] naphthalene-1-carboxamide hydrochloride] as the compound, how does the IC50 [1] read?
A: ≤ 10 µM

Q: And the IC50 [2]?
A: < 0.1 µM

Q: What does the source list for `N[C@]1(Cc2ccc3ccccc3c2)C[C@H]1c1ccc(NC(=O)c2ccc3ccccc3c2)cc1` (relative stereo) [Example A-72, N-[4-[trans-2-amino-2-(2-naphthylmethyl)cyclopropyl]phenyl] naphthalene-2-carboxamide hydrochloride]?
A: IC50 [1]: ≤ 10 µM; IC50 [2]: 0.1 to 1 µM

Q: Which results are given for `N[C@]1(Cc2ccc3ccccc3c2)C[C@H]1c1ccc(NC(=O)c2ccc(-c3ccccc3)cc2)cc1` (relative stereo) [Example A-73, N-[4-[trans-2-amino-2-(2-naphthylmethyl)cyclopropyl]phenyl]-4-phenyl-benzamide hydrochloride]?
A: IC50 [1]: 10 to 50 µM; IC50 [2]: 0.1 to 1 µM

Q: With `CC[C@@]1(N)C[C@H]1c1ccc(NC(=O)Cc2ccc3ccccc3c2)cc1` (relative stereo) [Example A-74, N-[4-trans-2-amino-2-ethyl-cyclopropyl] phenyl]-2-(2-naphthyl) acetamide hydrochloride] as the compound, how does the IC50 [1] read?
A: 10 to 50 µM

Q: What about the IC50 [2] of the same compound?
A: < 0.1 µM

Q: What does the source list for `N[C@]1(c2ccccc2)C[C@H]1c1ccc(NC(=O)c2ccccc2)cc1` (relative stereo) [Example A-75, N-[4-[trans-2-amino-2-phenyl-cyclopropyl]phenyl] benzamide hydrochloride]?
A: IC50 [1]: 10 to 50 µM; IC50 [2]: < 0.1 µM

Q: `N[C@]1(Cc2ccc3ccccc3c2)C[C@H]1c1ccc(NC(=O)Cc2cccc3ccccc23)cc1` (relative stereo) [Example A-76, N-[4-[trans-2-amino-2-(2-naphthylmethyl)cyclopropyl]phenyl]-2-(1-naphthyl)acetamide hydrochloride] was tested. Which IC50 [1] did it give?
A: ≤ 10 µM

Q: What about the IC50 [2] of the same compound?
A: 0.1 to 1 µM

Q: With `Nc1ccc([C@@H]2C[C@]2(N)Cc2ccc3ccccc3c2)cc1` (relative stereo) [Example A-119, 4-[trans-2-amino-2-(2-naphthylmethyl)cyclopropyl]aniline 2,2,2-trifluoroacetic acid] as the compound, how does the IC50 [1] read?
A: ≤ 10 µM

Q: For `N[C@@]1(CO)C[C@H]1c1ccccc1` (relative stereo) [Example B-2, [1-Amino-(cis)-2-phenyl-cyclopropyl]methanol], which IC50 [1] is on record?
A: 50 to 100 µM

Q: Which IC50 [1] does the source give for `CC[C@@]1(NCc2c(OC)ccc3ccccc23)C[C@H]1c1ccccc1` [Example C-2, (1R,2S)-1-ethyl-N-[(2-methoxy-1-naphthyl)methyl]-2-phenyl-cyclopropanamine] here?
A: 50 to 100 µM
